According to US10023592B2, “Bromodomain inhibitors” (Celgene Quanticel Research, Inc., priority 2013, dated 2018):
Read-outs that look alike come from different tables or passages of the source.

Tests used:
BRD4(BD1) = BRD4(BD1) (Homo sapiens (Human), UniProt O60885); assay: In vitro enzyme inhibition assay (BRD4 AlphaScreen); format: binding
Method in brief: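 His-tagged BRD4 tested by AlphaScreen for binding of biotinylated H4K5/8/12/16-tetraacetyl peptide. After 20 min at room temperature, streptavidin donor and nickel chelate acceptor beads added (5 μg/mL final each). IC50 determined.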

[1] = test system: HL-60, human proleukemia cells; assay: Cell-MTS proliferation assay, HL-60; format: cell-based; conditions: Homo sapiens, 168 hr
Method in brief: (§1)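 Seeded for ~90% confluence at 7 days (Raji 15,000, HL-60 5,000, NCI-H460 3,000 cells/well); compound added 24 h post-plating as 11-point dilution, 100 μM to 2.0 nM final.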

[2] = test system: Raji, human Burkitts lymphoma cells; assay: Cell-MTS proliferation assay, Raji; format: cell-based; conditions: Homo sapiens, 168 hr
Method in brief: as §1

[3] = test system: NCI-H460, human non-small cell lung cancer cells; assay: Cell-MTS proliferation assay, NCI-H460; format: cell-based; conditions: Homo sapiens, 168 hr
Method in brief: as §1

[4] = in vitro enzyme inhibition assay
[5] = NCI-H460, Cell-MTS proliferation
[6] = HL-60, Cell-MTS, class symbols A/B/C
[7] = Raji, Cell-MTS, class symbols A/B/C
[8] = NCI-H460, Cell-MTS, class symbols A/B/C
[9] = Cell-MTS proliferation, HL-60 cells
[10] = Cell-MTS proliferation, Raji cells
[11] = Cell-MTS proliferation, NCI-H460 cells

| Structure (SMILES) | IC50 (BRD4(BD1); [4]) [µM] | IC50 ([1]; HL-60, Cell-MTS proliferation) [µM] | IC50 ([2]; Raji, Cell-MTS proliferation) [µM] | IC50 [3, 5] [µM] | IC50 [1, 9] [µM] | IC50 [2, 10] [µM] | IC50 [3, 11] [µM] | also measured |
| --- | --- | --- | --- | --- | --- | --- | --- | --- |
| CCS(=O)(=O)Nc1ccc(Oc2ccc(F)cc2F)c(-c2cn(C)c(=O)c3occc23)c1 [Example 253, N-[4-(2,4-difluorophenoxy)-3-(6-methyl-7-oxofuro[2,3-c]pyridin-4-yl)phenyl]ethanesulfonamide] | < 0.5 | < 0.5 | < 0.5 | > 5 | – | – | – | – |
| Cn1cc(-c2cc(S(C)(=O)=O)ccc2OCC2CC2)n2cncc2c1=O [Example 130, 5-[2-(cyclopropylmethoxy)-5-methylsulfonylphenyl]-7-methylimidazo[1,5-a]pyrazin-8-one] | – | – | – | – | – | – | – | IC50 (BRD4(BD1); class symbols A/B/C): < 0.5 µM; IC50 [1, 6]: < 0.5 µM; IC50 [2, 7]: 0.5 to 5 µM; IC50 [3, 8]: > 5 µM |
| Cn1cc(-c2cc(NS(C)(=O)=O)ccc2Oc2ccc(F)cc2F)ccc1=O [Example 100, N-[4-(2,4-difluorophenoxy)-3-(1-methyl-6-oxopyridin-3-yl)phenyl]methanesulfonamide] | – | – | – | – | – | – | – | IC50 (BRD4(BD1)): < 0.5 µM; IC50 [1, 6]: < 0.5 µM; IC50 [2, 7]: < 0.5 µM; IC50 [3, 8]: > 5 µM |
| CCS(=O)(=O)Nc1ccc(Oc2ccc(F)cc2F)c(-c2cc(OC)c(=O)n(C)c2)c1 [Example 443, N-[4-(2,4-difluorophenoxy)-3-(5-methoxy-1-methyl-6-oxopyridin-3-yl)phenyl]ethanesulfonamide] | < 0.5 | – | – | – | < 0.5 | < 0.5 | > 5 | – |
| Cn1cc(-c2cn(CS(C)(=O)=O)c(=O)cc2OCC2CC2)c2ccc(F)cc2c1=O [Example 383, 4-[4-(cyclopropylmethoxy)-1-(methylsulfonylmethyl)-6-oxopyridin-3-yl]-7-fluoro-2-methylisoquinolin-1-one] | < 0.5 | – | – | – | < 0.5 | 0.5 to 5 | > 5 | – |
| Cn1cc(-c2cc(S(C)(=O)=O)ccc2OCC2CC2)ccc1=O [Example 98, 5-[2-(cyclopropylmethoxy)-5-methylsulfonylphenyl]-1-methylpyridin-2-one] | – | – | – | – | – | – | – | IC50 (BRD4(BD1); class symbols A/B/C): 0.5 to 5 µM; IC50 [1, 6]: 0.5 to 5 µM; IC50 [2, 7]: 0.5 to 5 µM; IC50 [3, 8]: > 5 µM |
| CCS(=O)(=O)Nc1ccc(O[C@H]2CC[C@@H](O)CC2)c(-c2cc(C)c(=O)n(C)c2)c1 [Example 431, N-[3-(1,5-dimethyl-6-oxopyridin-3-yl)-4-(cis-4-hydroxycyclohexyl)oxyphenyl]ethanesulfonamide] | < 0.5 | – | – | – | < 0.5 | 0.5 to 5 | > 5 | – |
| CCS(=O)(=O)Nc1ccc(Oc2ccc(F)cc2F)c(-c2cc(SC)c(=O)n(C)c2)c1 [Example 402, N-[4-(2,4-difluorophenoxy)-3-(1-methyl-5-methylsulfanyl-6-oxopyridin-3-yl)phenyl]ethanesulfonamide] | < 0.5 | – | – | – | < 0.5 | < 0.5 | > 5 | – |
| Cn1cc(-c2cn(CS(C)(=O)=O)c(=O)cc2Oc2ccc(F)cc2F)ccc1=O [Example 386, 4-(2,4-difluorophenoxy)-5-(1-methyl-6-oxopyridin-3-yl)-1-(methylsulfonylmethyl)pyridin-2-one] | < 0.5 | – | – | – | 0.5 to 5 | 0.5 to 5 | > 5 | – |
| Cc1cc(=O)n(C)cc1-c1cc(NS(C)(=O)=O)ccc1Oc1ccc(F)cc1F [Example 101, N-[4-(2,4-difluorophenoxy)-3-(1,4-dimethyl-6-oxopyridin-3-yl)phenyl]methanesulfonamide] | – | – | – | – | – | – | – | IC50 (BRD4(BD1); class symbols A/B/C): < 0.5 µM; IC50 [1, 6]: < 0.5 µM; IC50 [2, 7]: < 0.5 µM; IC50 [3, 8]: > 5 µM |
| CCS(=O)(=O)c1cnc(OCC2CC2)c(-c2cn(C)c(=O)c3ccccc23)c1 [Example 322, 4-[2-(cyclopropylmethoxy)-5-ethylsulfonylpyridin-3-yl]-2-methylisoquinolin-1-one] | < 0.5 | < 0.5 | < 0.5 | > 5 | – | – | – | – |
| CCS(=O)(=O)c1ccc(NC2CCC(F)(F)CC2)c(-c2cc(C)c(=O)n(C)c2)c1 [Example 397, 5-[2-[(4,4-difluorocyclohexyl)amino]-5-ethylsulfonylphenyl]-1,3-dimethylpyridin-2-one] | < 0.5 | – | – | – | < 0.5 | < 0.5 | > 5 | – |
| CCn1cc(-c2cc(S(C)(=O)=O)ccc2NCC2CC2)cc(C)c1=O [Example 428, 5-[2-(cyclopropylmethylamino)-5-methylsulfonylphenyl]-1-ethyl-3-methylpyridin-2-one] | < 0.5 | – | – | – | 0.5 to 5 | 0.5 to 5 | > 5 | – |
| Cc1cc(-c2cc(S(C)(=O)=O)cc3c2OC(C)C3)cn(C)c1=O (stereo not shown) [Example 486, 1,3-dimethyl-5-(2-methyl-5-methylsulfonyl-2,3-dihydro-1-benzofuran-7-yl)pyridin-2-one] | 0.5 to 5 | – | – | – | 0.5 to 5 | > 5 | > 5 | – |
| Cn1cc(-c2nc(NS(C)(=O)=O)ncc2OCC2CC2)c2ccccc2c1=O [Example 152, N-[5-(cyclopropylmethoxy)-4-(2-methyl-1-oxoisoquinolin-4-yl)pyrimidin-2-yl]methanesulfonamide] | < 0.5 | < 0.5 | < 0.5 | > 5 | – | – | – | – |
| Cc1cc(-c2cc(NS(C)(=O)=O)ccc2O[C@H]2CC[C@H](O)CC2)cn(C)c1=O [Example 433, N-[3-(1,5-dimethyl-6-oxopyridin-3-yl)-4-(trans-4-hydroxycyclohexyl)oxyphenyl]methanesulfonamide] | < 0.5 | – | – | – | < 0.5 | < 0.5 | > 5 | – |
| Cn1cc(-c2cc(S(C)(=O)=O)ccc2OCC2CC2)c2ccc(F)cc2c1=O [Example 91, 4-[2-(cyclopropylmethoxy)-5-methylsulfonylphenyl]-7-fluoro-2-methyl-isoquinolin-1-one] | – | – | – | – | – | – | – | IC50 (BRD4(BD1); class symbols A/B/C): < 0.5 µM; IC50 [1, 6]: < 0.5 µM; IC50 [2, 7]: < 0.5 µM; IC50 [3, 8]: > 5 µM |
| Cn1cc(-c2cc(S(C)(=O)=O)ccc2OCC2CC2)c2cc(Cl)oc2c1=O [Example 260, 2-chloro-4-[2-(cyclopropylmethoxy)-5-methylsulfonylphenyl]-6-methylfuro[2,3-c]pyridin-7-one] | < 0.5 | < 0.5 | < 0.5 | 0.5 to 5 | – | – | – | – |
| CCS(=O)(=O)c1ccc(OCC2CC2)c(-c2cn(C)c(=O)c3ccccc23)c1 [Example 135, 4-[2-(cyclopropylmethoxy)-5-ethylsulfonylphenyl]-2-methylisoquinolin-1-one] | – | – | – | – | – | – | – | IC50 (BRD4(BD1); class symbols A/B/C): < 0.5 µM; IC50 [1, 6]: < 0.5 µM; IC50 [2, 7]: < 0.5 µM; IC50 [3, 8]: 0.5 to 5 µM |
| CCS(=O)(=O)Nc1ccc(OC2CCCOC2)c(-c2cc(C)c(=O)n(C)c2)c1 (stereo not shown) [Example 448, N-[3-(1,5-dimethyl-6-oxopyridin-3-yl)-4-(oxan-3-yloxy)phenyl]ethanesulfonamide] | < 0.5 | – | – | – | < 0.5 | < 0.5 | > 5 | – |
| Cn1cc(-c2cn(CS(C)(=O)=O)c(=O)cc2Oc2ccc(F)cc2F)c2ccccc2c1=O [Example 387, 4-[4-(2,4-difluorophenoxy)-1-(methylsulfonylmethyl)-6-oxopyridin-3-yl]-2-methylisoquinolin-1-one] | < 0.5 | – | – | – | < 0.5 | < 0.5 | > 5 | – |
| Cc1cc(-c2cc(OCCc3ccccc3)cc(S(C)(=O)=O)c2)cn(C)c1=O [Example 326, 1,3-dimethyl-5-[3-methylsulfonyl-5-(2-phenylethoxy)phenyl]pyridin-2-one] | < 0.5 | 0.5 to 5 | 0.5 to 5 | > 5 | – | – | – | – |
| COc1ccc2c(=O)n(C)cc(-c3cc(S(C)(=O)=O)ccc3OCC3CC3)c2c1 [Example 198, 4-(2-(cyclopropylmethoxy)-5-(methylsulfonyl)phenyl)-6-methoxy-2-methylisoquinolin-1(2H)-one] | < 0.5 | < 0.5 | < 0.5 | > 5 | – | – | – | – |
| Cc1cc(=O)n(C)cc1-c1cc(CS(C)(=O)=O)ccc1Oc1ccc(F)cc1F [Example 454, 5-[2-(2,4-difluorophenoxy)-5-(methylsulfonylmethyl)phenyl]-1,4-dimethylpyridin-2-one] | < 0.5 | – | – | – | < 0.5 | < 0.5 | > 5 | – |
| CCS(=O)(=O)c1ccc(OCC2CC2)c(-c2cc(Cl)c(=O)n(C)c2)c1 [Example 272, 3-chloro-5-[2-(cyclopropylmethoxy)-5-ethylsulfonylphenyl]-1-methylpyridin-2-one] | < 0.5 | < 0.5 | < 0.5 | > 5 | – | – | – | – |
| CCCc1cnc(NS(=O)(=O)CC)nc1-c1cc(C)c(=O)n(C)c1 [Example 308, N-[4-(1,5-dimethyl-6-oxopyridin-3-yl)-5-propylpyrimidin-2-yl] ethanesulfonamide] | < 0.5 | < 0.5 | < 0.5 | > 5 | – | – | – | – |
| CCS(=O)(=O)Nc1cnc(OCC2CC2)c(-c2cn(C)c(=O)c3oc(F)cc23)c1 [Example 261] | < 0.5 | < 0.5 | < 0.5 | > 5 | – | – | – | – |
| CCS(=O)(=O)c1ccc(OCC2CC2)c(-c2cn(C)c(=O)c3ccccc23)n1 [Example 206, 4-[3-(cyclopropylmethoxy)-6-ethylsulfonylpyridin-2-yl]-2-methylisoquinolin-1-one] | < 0.5 | < 0.5 | < 0.5 | > 5 | – | – | – | – |
